Test results published in PMC12837517, “Valorization of Onion-Processing Waste: Digestive Fate, Bioavailability, and Cellular Antioxidant Properties of Red and Yellow Peels Polyphenols” (Antioxidants, 2025).
Where two headings read alike, the source gives them in different places. Marks after values point to notes of the source that are not given here. Each block holds one compound with its values, some of them ahead of it.

How the values were obtained:
[1] = test system: Caco-2 cells; assay: Polyphenol accumulation within Caco-2 cells (uptake); assay type: in vitro ADME, human
Protocol: (§1) To determine how effectively specific polyphenols might be absorbed through the human intestine, an in vitro assay was conducted utilizing the Caco-2 cell line, which, when fully differentiated, mimics the human intestinal barrier, as described by D’Antuono et al. [16]. […] The cells were maintained for 21 days in a standard culture condition to ensure complete differentiation into a tight monolayer. The medium in both the apical and basolateral compartments was refreshed twice weekly.
(§2) The development of a robust epithelial barrier was confirmed by measuring the Transepithelial Electrical Resistance (TEER) using a volt–ohm meter. […] Prior to the experiment, the monolayers were rinsed with a pH 5.5 PBS. The apical chamber then received 2 mL of phenol red-free DMEM containing hydroalcoholic extracts from red and yellow onion peels, adjusted to a final total polyphenol concentration of 60 μg/mL and 30 μg/mL, respectively. The system was incubated at 37 °C, and samples from both the apical and basolateral chambers were collected for 30, 60, 90, and 120 min to track the time-dependent flux of the compounds. These samples were flash-frozen at −80 °C pending High-Performance Liquid Chromatography (HPLC) analysis.
(§3) For the assessment of polyphenol accumulation within the Caco-2 cells, the monolayers were first subjected to a sequential wash with PBS pH 5.5, and then with a solution of 0.1% fatty acid-free bovine albumin in PBS pH 5.5. The cells were then mechanically harvested into 1 mL of cold PBS pH 5.5 and stored at −80 °C under a nitrogen atmosphere. […] Polyphenols were chemically isolated from the sonicated Caco-2 cells and the basolateral solutions via a liquid–liquid extraction technique, employing ethyl acetate EtOAc stabilized with 0.01% butylated hydroxytoluene (BHT). This extraction was repeated three times, and the pooled organic layers were dried under vacuum before being dissolved in 200 μL mobile phase for HPLC analysis.

[2] = Two-step in vitro gastrointestinal digestion, digestive stability of polyphenols; assay type: in vitro ADME; settings: for Digestive Stability (%) Gastric %: after gastric phase (pepsin, pH 2.5, 37 °C, 1 h); for Digestive Stability (%) Intestinal %: after small intestinal phase (pH 6.5, 37 °C, 2 h)
Protocol: The digestive stability of polyphenols was assessed using a two-step in vitro gastrointestinal digestion model, as described by Cardinali et al.. Aliquots (3 mL) of aqueous onion peel extracts (500 μg/mL total polyphenols, determined by HPLC-DAD) were diluted with 4.5 mL of 0.9% NaCl at pH 7. The gastric phase was initiated with addition of 0.9 mL of porcine pepsin solution (40 mg/mL) in 0.1 N HCl and adjustment of pH to 2.5 ± 0.1 with 1 N HCl. Samples were incubated at 37 °C for 1 h. Following gastric digestion, the small intestinal phase was initiated by adjusting the pH of gastric digesta to 5.3 with 100 mM NaHCO3 and 1 N NaOH, followed by the addition of 2.7 mL of small intestinal enzyme solution (lipase 2 mg/mL, pancreatin 4 mg/mL, and bile 24 mg/mL in 100 mM NaHCO3). The final sample pH was adjusted to 6.5 ± 0.1 with 1 N NaOH, the volume was standardized to 15 mL with saline solution (0.9% NaCl), and the sample was incubated at 37 °C for 2 h. After both digestion steps (gastric and small intestinal), the samples were collected and centrifuged (10,000× g, 1 h, 4 °C), filtered (0.45 μm), and then analyzed by HPLC-DAD. Digestive stability (%) was calculated by comparing pre- and post-digestion polyphenol content.

[3] = test system: Caco-2 cell monolayer; assay: Transport of polyphenols across differentiated Caco-2 monolayers (apical stability, basolateral bioavailability, Papp)
Protocol: as §1, §2, §3

[4] = as above; settings: human, Caco-2
Protocol: as §1, §2, §3

[5] = test system: Caco-2 cell monolayer
Protocol: as §1, §2, §3

[6] = design: method as in PMID 34388527; settings: at room temperature; cited from earlier work
[7] = red onion peels “Rossa di Tropea” extract
[8] = yellow onion peels “Recas” extract
[9] = yellow onion peels extract, 30 min (maximum)
[10] = yellow onion peels extract, 30-120 min
[11] = yellow onion peels “Recas” extract, listed as quercetin aglycone

Structure (SMILES): COc1cc(-c2oc3cc(O)cc(O)c3c(=O)c2O)ccc1O [isorhamnetin]
cellular accumulation ([1]; red onion peels extract, 120 min): 0.040 ng/µg protein

Structure (SMILES): O=C(O)c1ccc(O)c(O)c1 [Protocatechuic acid]
recovery ([2]; in both onion varieties, phase not specified, read-out: recovery after digestion): > 100%
Digestive Stability (%) Gastric % [2, 7]: >100.00%
Digestive Stability (%) Intestinal % [2, 7]: >100.00%
Digestive Stability (%) Gastric % [2, 8]: 90.32 ± 4.41 ^b %
Digestive Stability (%) Intestinal % [2, 8]: >100.00 ^a %
cellular accumulation ([1]; red onion peels extract, 30 min): 0.013 ng/µg protein
cellular accumulation [1, 9]: 0.050 ng/µg protein
stability in apical culture medium over time [3, 10]: consistent stability
Papp A→B at 120 min, 30 µg/mL total polyphenols [4]: 8.4 ×10⁻⁶ cm/s
bioavailability at 90 min, 30 µg/mL total polyphenols [4]: 6.8%
bioavailability at 120 min, 30 µg/mL total polyphenols [4]: 7.7%

Structure (SMILES): O=c1c(O[C@@H]2O[C@H](CO)[C@@H](O)[C@H](O)[C@H]2O)c(-c2ccc(O[C@@H]3O[C@H](CO)[C@@H](O)[C@H](O)[C@H]3O)c(O)c2)oc2cc(O)cc(O)c12 [Quercetin 3,4′-diglucoside]
Papp (apical-to-basolateral) [5]: 6.1 ×10⁻⁶ cm/s

Structure (SMILES): O=C1c2c(O)cc(O)cc2OC(c2ccc(O)c(O)c2)C1O (stereo not shown) [taxifolin]
solubility [6]: 0.1%

Structure (SMILES): OC[C@H]1O[C@@H](Oc2cc3c(O)cc(O)cc3[o+]c2-c2ccc(O)c(O)c2)[C@H](O)[C@@H](O)[C@@H]1O [Cyanidin 3-glucoside]
Papp (apical-to-basolateral) ([3]; red onion peels extract): 5.1 ×10⁻⁶ cm/s
detection in basolateral compartment ([3]; red onion peels extract, 30-120 min): present in the basolateral side at 60 and 120 min

Results, then the compound that gave them:

Digestive Stability (%) Gastric % [2, 7]: 99.51 ± 3.50 ^a %
Digestive Stability (%) Intestinal % [2, 7]: 39.97 ± 6.96 ^b %
Digestive Stability (%) Gastric % [2, 8]: 81.11 ± 6.54 ^a %
Digestive Stability (%) Intestinal % [2, 8]: 36.76 ± 3.49 ^b %
cellular accumulation ([1]; red onion peels extract, 90 min (maximum)): 0.142 ng/µg protein
cellular accumulation [1, 9]: 0.162 ng/µg protein
Papp A→B at 120 min, 30 µg/mL total polyphenols [4]: 5.5 ×10⁻⁶ cm/s
bioavailability at 90 min, 30 µg/mL total polyphenols [4]: ~8%
bioavailability at 120 min, 30 µg/mL total polyphenols [4]: ~8%
recovery at 30 min, 60 μg/mL total polyphenols [4]: 78%
recovery at 120 min, 60 μg/mL total polyphenols [4]: 62%
Structure (SMILES): O=c1c(O)c(-c2ccc(O[C@@H]3O[C@H](CO)[C@@H](O)[C@H](O)[C@H]3O)c(O)c2)oc2cc(O)cc(O)c12 [Spiraeoside, quercetin-4′-O-glucoside]

Digestive Stability (%) Gastric % [2, 7]: 32.34 ± 3.97 ^a %
Digestive Stability (%) Intestinal % [2, 7]: 15.37 ± 2.55 ^b %
Digestive Stability (%) Gastric % [2, 8]: 3.44 ± 0.56 ^b %
Digestive Stability (%) Gastric % [2, 11]: 3.44%
Digestive Stability (%) Intestinal % [2, 8]: 15.64 ± 0.96 ^a %
Digestive Stability (%) Intestinal % [2, 11]: 15.64%
maximum cellular accumulation ([1]; red onion peels extract, time not stated): 1.468 ng/µg protein
detection in basolateral compartment [3, 10]: not detected
Papp A→B at 120 min, 60 µg/mL total polyphenols [4]: 1.1 ×10⁻⁶ cm/s
bioavailability at 60 min, 60 µg/mL total polyphenols [4]: 0.6%
recovery at 30 min, 60 μg/mL total polyphenols [4]: 38%
recovery at 120 min, 60 μg/mL total polyphenols [4]: 7%
Structure (SMILES): O=c1c(O)c(-c2ccc(O)c(O)c2)oc2cc(O)cc(O)c12 [Quercetin]

Papp (apical-to-basolateral) [5]: 5.9 ×10⁻⁶ cm/s
Structure (SMILES): O=c1c(O)c(-c2ccc(O[C@@H]3O[C@H](CO)[C@@H](O)[C@H](O)[C@H]3O)c(O)c2)oc2cc(O[C@@H]3O[C@H](CO)[C@@H](O)[C@H](O)[C@H]3O)cc(O)c12 [Quercetin 7,4′-diglucoside]
